We go through 5 molecules from patent publication US5292737A, “N,N'-bis(sulfonamido)-2-amino-4-iminonaphthalen-1-ones and N,N'-bis(amido)-2-amino-4-iminonaphthalen-1-ones” (Sphinx Pharmaceuticals Corporation, priority 1992, dated 1994).

What all share (type): biochemical
Assay [1] deals with T1, PKC isoenzyme δ (Homo sapiens, UniProt Q05655).
T1 construct: made in house; host or cells: baculovirus-insect cell expression system
The assay is described as follows: Protein kinase C inhibition assay, PKC isoenzyme δ. The settings on record: read-out: IC50 PKC δ. The gist of the method: (§1)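 Baculovirus-expressed enzyme with histone H1 or myelin basic protein as substrate, at near-physiological pH, salt and cofactor levels, with suboptimal co-sonicated phosphatidylserine/DAG vesicles. Compounds were tested at 1, 10, 50 and 150 μM final; reactions ran 10 min, were TCA-stopped, and filter-bound ³²P was counted. IC50 is relative to control activity.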

Assay [2] has as its target T2, PKC isoenzyme βII (Homo sapiens, UniProt P05771).
T2 construct: made in house; host or cells: baculovirus-insect cell expression system
The assay can be described thus: Protein kinase C inhibition assay, PKC isoenzyme βII. The settings on record: read-out: IC50 PKC βII. The gist of the method: as §1

In assay [3] the target is T3, PKC isoenzyme α (Homo sapiens, UniProt P17252).
T3 construct: made in house; host or cells: baculovirus-insect cell expression system
The assay can be described thus: Protein kinase C inhibition assay, PKC isoenzyme α. To be noted: read-out: IC50 PKC α. The gist of the method:
as §1

For assay [4], the target named is T4, PKC isoenzyme ζ (Homo sapiens, UniProt Q05513).
T4 construct: made in house; host or cells: baculovirus-insect cell expression system
T4 sequence (Q05513 1-592): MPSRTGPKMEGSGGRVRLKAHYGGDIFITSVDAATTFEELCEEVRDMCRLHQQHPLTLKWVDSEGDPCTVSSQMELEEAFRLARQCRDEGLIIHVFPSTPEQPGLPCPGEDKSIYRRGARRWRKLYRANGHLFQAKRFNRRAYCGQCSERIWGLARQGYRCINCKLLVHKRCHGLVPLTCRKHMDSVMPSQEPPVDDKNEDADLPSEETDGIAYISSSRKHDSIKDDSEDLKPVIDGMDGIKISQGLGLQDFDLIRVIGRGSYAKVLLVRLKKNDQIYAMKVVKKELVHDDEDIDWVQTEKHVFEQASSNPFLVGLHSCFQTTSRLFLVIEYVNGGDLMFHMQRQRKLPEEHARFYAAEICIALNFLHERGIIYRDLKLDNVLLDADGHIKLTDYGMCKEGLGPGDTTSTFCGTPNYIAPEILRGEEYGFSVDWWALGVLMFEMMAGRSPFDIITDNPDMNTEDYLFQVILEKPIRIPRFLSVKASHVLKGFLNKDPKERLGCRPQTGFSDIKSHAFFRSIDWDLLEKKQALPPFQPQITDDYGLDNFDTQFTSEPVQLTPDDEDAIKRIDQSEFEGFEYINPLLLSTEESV
The assay can be described thus: Protein kinase C inhibition assay, PKC isoenzyme ζ. To be noted: read-out: IC50 PKC .zeta. The method in brief:
as §1

T1 sequence (Q05655 whole entry): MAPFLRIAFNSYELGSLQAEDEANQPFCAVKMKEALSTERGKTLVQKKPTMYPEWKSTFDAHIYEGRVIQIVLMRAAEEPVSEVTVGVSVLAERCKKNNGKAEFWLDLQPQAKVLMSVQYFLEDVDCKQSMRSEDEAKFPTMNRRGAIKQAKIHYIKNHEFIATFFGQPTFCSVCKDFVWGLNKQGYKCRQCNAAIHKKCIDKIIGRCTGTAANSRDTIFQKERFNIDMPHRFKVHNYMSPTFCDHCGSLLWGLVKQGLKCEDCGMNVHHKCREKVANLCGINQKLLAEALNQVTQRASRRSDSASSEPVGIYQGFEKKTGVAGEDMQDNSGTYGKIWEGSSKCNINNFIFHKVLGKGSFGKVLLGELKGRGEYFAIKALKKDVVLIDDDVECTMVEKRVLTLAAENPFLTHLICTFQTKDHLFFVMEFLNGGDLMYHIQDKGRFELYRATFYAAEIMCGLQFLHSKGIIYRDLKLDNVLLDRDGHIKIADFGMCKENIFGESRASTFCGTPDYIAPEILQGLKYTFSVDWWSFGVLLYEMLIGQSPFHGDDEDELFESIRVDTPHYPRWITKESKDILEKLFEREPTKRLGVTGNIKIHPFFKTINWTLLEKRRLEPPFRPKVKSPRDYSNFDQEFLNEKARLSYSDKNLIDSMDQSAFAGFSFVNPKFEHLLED
T2 sequence (P05771 1-673 isoform P05771-2): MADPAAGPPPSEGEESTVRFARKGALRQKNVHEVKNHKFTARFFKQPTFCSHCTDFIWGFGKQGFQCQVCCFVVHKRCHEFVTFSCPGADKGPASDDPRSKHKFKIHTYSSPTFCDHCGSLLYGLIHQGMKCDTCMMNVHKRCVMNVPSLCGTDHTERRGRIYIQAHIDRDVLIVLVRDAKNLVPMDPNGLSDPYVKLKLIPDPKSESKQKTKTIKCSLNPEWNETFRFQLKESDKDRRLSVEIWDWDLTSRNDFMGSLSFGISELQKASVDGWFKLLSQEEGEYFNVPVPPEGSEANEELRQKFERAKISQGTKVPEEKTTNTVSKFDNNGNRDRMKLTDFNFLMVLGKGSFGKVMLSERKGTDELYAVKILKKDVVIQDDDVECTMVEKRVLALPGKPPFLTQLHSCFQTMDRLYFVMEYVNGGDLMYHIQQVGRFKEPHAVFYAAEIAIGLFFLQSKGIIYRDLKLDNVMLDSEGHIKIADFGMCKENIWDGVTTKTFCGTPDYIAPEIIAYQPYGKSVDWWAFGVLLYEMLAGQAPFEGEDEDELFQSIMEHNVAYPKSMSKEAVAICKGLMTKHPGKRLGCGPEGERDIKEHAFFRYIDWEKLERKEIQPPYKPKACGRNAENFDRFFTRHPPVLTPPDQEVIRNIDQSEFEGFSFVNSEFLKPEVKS

Turning to `COc1cc(NS(=O)(=O)c2ccc(N=C3C=C(Nc4ccc(S(=O)(=O)Nc5cc(OC)nc(OC)n5)cc4)C(=O)c4ccccc43)cc2)nc(OC)n1` [Compound 6g], the IC50 in assay [1] is greater than 150 µM; in assay [2], 33 µM; in assay [3], 61 µM; in assay [4], 28 µM.

Consider `COc1cnc(NS(=O)(=O)c2ccc(N=C3C=C(Nc4ccc(S(=O)(=O)Nc5ncc(OC)cn5)cc4)C(=O)c4ccccc43)cc2)nc1` [Compound 6h], for which the IC50 in assay [1] was greater than 150 µM; in assay [2], 97 µM; in assay [3] it was 108 µM; in assay [4], 47 µM.

In the case of `COc1ccc(NS(=O)(=O)c2ccc(N=C3C=C(Nc4ccc(S(=O)(=O)Nc5ccc(OC)nn5)cc4)C(=O)c4ccccc43)cc2)nn1` [Compound 6j], the IC50 in assay [1] was 113 µM; in assay [2] it was 47 µM; in assay [3] it was 106 µM; in assay [4], 49 µM.

Take `O=C1C(Nc2ccc(S(=O)(=O)Nc3ccc(Cl)nn3)cc2)=CC(=Nc2ccc(S(=O)(=O)Nc3ccc(Cl)nn3)cc2)c2ccccc21` [Compound 6l]: the IC50 worked out at 50 µM in assay [1], 29 µM in assay [2], 44 µM in assay [3] and 9 µM in assay [4].

Take `O=C1C(Nc2ccc(S(=O)(=O)Nc3cnc4ccccc4n3)cc2)=CC(=Nc2ccc(S(=O)(=O)Nc3cnc4ccccc4n3)cc2)c2ccccc21` [Compound 6m]: the IC50 in assay [1] came out at 37 µM; in assay [2], 23 µM; in assay [3], 9 µM; in assay [4] it was 9 µM.

A word on the IC50: it is the concentration at which inhibition is half-maximal.
